Source: patent US20100168228A1, “NOVEL CHEMOTHERAPEUTIC AGENTS AGAINST INFLAMMATION AND CANCER” (RELIANCE LIFE SCIENCES PVT. LTD., priority 2006, published 2010)

How the values were obtained:
RAW 264.7 cells = assay: Nitrite quantification (Griess) in LPS stimulated macrophages; format: cell-based, mouse; details: RAW 264.7 + LPS (200 ng/ml) + 10 μM compound, 24 h; LPS + DMSO control 14.560, basal 0.782
Procedure: NO2^− accumulation was used as an indicator of Nitric Oxide (NO) production in the medium as described previously (Green et al., 1982 Anal Biochem 126, 131-138). […] The isolated supernatants were mixed with an equal volume of Griess reagent (1% sulfanilamide, 0.1% naphthylenediamine dihydrochloride, and 2% phosphoric acid) and incubated at room temperature for 15 min. NaNO2 was used to generate a standard curve, and nitrite production was determined by measuring the optical density at 540 nm.
To estimate the anti-inflammatory effects of all the synthetic molecules listed in this study, we measured the accumulation of nitrite, the stable metabolite of NO, in the culture media using Griess reagent.
To investigate the effect of CAMVE on NO production, we measured the accumulation of nitrite, the stable metabolite of NO, in the culture media using Griess reagent. To investigate the effect of CAMVE on NO production, Raw 264.7 cells, pretreated with indicated concentrations of CAMVE for 1 h were incubated with LPS (250 ng/ml) for 24 h.

TNFα = assay: Bioassay of TNFα production by LPS activated RAW 264.7 macrophages using L929 cell line; format: cell-based; details: Mus musculus; L929 + ActD + supernatant from LPS + compound (10 μM) treated RAW 264.7 macrophage; crystal violet; mean ± S.D. of triplicate; read-out: PERCENTAGE CELL SURVIVAL ± S.D.
Procedure: Measurement of TNFα in culture medium or supernatant is performed using immunoassay and bioassay. Bioassay was used for the measurement of bioactive TNFα production in the culture medium.
TNFα secretion into the medium by LPS activated macrophage was assayed using L929 tumorigenic murine cells (ATCC) specifically sensitive to TNFα. L929 cell cytotoxicity assay was performed by a modified method (Sano et al., The Journal of Immunology, 1999, 163: 387-395 The Journal of Immunology, 1999, 163: 387-395) based on that described elsewhere (Flick D A, Gifford G E. J Immunol Methods. 1984 Mar. 30; 68(1-2): 167-175). Briefly, the L929 cells (log phase cells) were seeded into a flat bottom 96 well plates (6×10^4/well) in 100 μl volume of RPMI 1640 containing 2% FCS and incubated overnight at 37° C. in a 5% CO2 incubator. A working dilution of the culture supernatant collected from LPS (200 ng/ml) activated macrophage in a volume of 100 μl per well was first tested to obtain 70-75% cytotoxicity equivalent to […] of recombinant TNFα standard to the TNFα sensitive L929 cell line. After incubation of the L929 cells appropriate fixed dilution of the culture supernatant collected from the compound treated (10 μM) wells, containing the LPS stimulated macrophages in a volume of 100 μl with 2 μg/ml Actinomycin D (Act D) was taken and added to the L929 cells and the cells were incubated at room temperature for 15 min followed by 18 h incubation at 37° C. overnight with 5% CO2. On the next day the medium was removed and the cells were stained with 0.2% (w/v) crystal violet for 10 minutes. The wells were gently rinsed with water, and 33% acetic acid (100 μl/well) was added to extract the retained crystal violet. The absorbance at 570 nm was finally measured.
Tumor necrosis factor-α can cause direct cytotoxicity to the lung fibroblast cell line (L929). Bioassay of TNF α is designated on the basis of this cytotoxicity of TNF α, which can be used for the identification of murine TNF α activity in tissue culture supernatants. Culture supernatant collected from the synthetic molecules treated well containing LPS stimulated macrophage modulated the extent of cytotoxicity to the L929 cells (see Table 1).

C/C=C/c1cc(OC)c2c(c1)[C@@H](C)[C@H](c1ccc(OC(=O)/C=C/c3ccc(O)cc3)c(OC)c1)O2 (racemic) [compound 29, (±)-2β-[4-O-(4-hydroxycinnamoyl)-3-methoxyphenyl]-3α-methyl-7-methoxy-5-[(E)-1-propenyl]-2,3-dihydrobenzofuran]
CONCENTRATION OF NITRITE μM ± SD (RAW 264.7 cells): 8.382 ± 0.454 µM
viability at 10 µM (TNFα): 50.6 ± 1.49%
